Assays:
Human δ-opioid (DOP) = molecular target: T1, Human δ-opioid (DOP) (Homo sapiens, UniProt P41143); assay: Radioligand binding, human δ-opioid (DOP) membranes, FlashPlate, [3H]-Bremazocine; conditions: compound at 10 μM, [3H]-Bremazocine
T1 construct: purchased Perkin Elmer Biosignal
Method in brief: (§1)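 Cloned human receptor membranes were coated onto FlashPlate wells and incubated with radioligand and compound (added from a 0.5 mM DMSO daughter plate) for 1 hour at room temperature in the dark. Scintillation counting gave percent inhibition, with DMSO defining total and reference ligand defining non-specific binding.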

Human κ-Opioid (KOP) = molecular target: T2, Human κ-Opioid (KOP) (Homo sapiens, UniProt P41145); assay: Radioligand binding, human κ-opioid (KOP) membranes, filtration, [3H]-Diprenorphine; conditions: compound at 10 μM, [3H]-Diprenorphine
T2 construct: purchased Perkin Elmer Biosignal
Method in brief: (§2)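 Percent inhibition of radioligand binding measured on recombinant human membranes: NK1 with [125I]-Substance P, KOP with [3H]-Diprenorphine. Incubation 1 h at room temperature, then harvest onto 0.3% PEI-soaked filters, cold Tris-HCl pH 7.4 washes and scintillation counting; non-specific binding from reference ligand wells.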

Human Melanocortin (MC3) = molecular target: T3, Human Melanocortin (MC3) (Homo sapiens, UniProt P41968); assay: Radioligand binding, human melanocortin MC3 membranes, FlashPlate, [125I]-NDP-αMSH; conditions: compound at 10 μM, [125I]-NDP-αMSH
T3 construct: purchased Perkin Elmer Biosignal
Method in brief: as §1

Human Melanocortin (MC4) = molecular target: T4, Human Melanocortin (MC4) (Homo sapiens, UniProt P32245); assay: Radioligand binding, human melanocortin MC4 membranes, FlashPlate, [125I]-NDP-αMSH; conditions: compound at 10 μM, [125I]-NDP-αMSH
T4 construct: purchased Perkin Elmer Biosignal
Method in brief: as §1

Human melanocortin (MC5) = molecular target: T5, Human melanocortin (MC5) (Homo sapiens, UniProt P33032); assay: Radioligand binding, human melanocortin MC5 membranes, FlashPlate, [125I]-NDP-αMSH; conditions: compound at 10 μM, [125I]-NDP-αMSH
T5 construct: purchased Perkin Elmer Biosignal
Method in brief: as §1

[1] = molecular target: T6, Human melanin-concentrating hormone (MCH1) (Homo sapiens, UniProt Q99705); assay: Radioligand binding, human melanin-concentrating hormone MCH1 membranes, FlashPlate, [125I]-S36057; conditions: compound at 10 μM
T6 construct: purchased Perkin Elmer Biosignal
Method in brief: as §1

Human μ-opioid (MOP) = molecular target: T7, Human μ-opioid (MOP) (Homo sapiens, UniProt P35372); assay: Radioligand binding, human μ-opioid (MOP) membranes, FlashPlate, [3H]-Naloxone; conditions: compound at 10 μM, [3H]-Naloxone
T7 construct: purchased Perkin Elmer Biosignal
Method in brief: as §1

Human neurokinin (NK1) = molecular target: T8, Human neurokinin (NK1) (Homo sapiens, UniProt P25103); assay: Radioligand binding, human neurokinin NK1 membranes, filtration, [125I]-Substance P; conditions: compound at 10 μM, [125I]-Substance P
T8 construct: purchased Perkin Elmer Biosignal
Method in brief: as §2

[2] = molecular target: T9, Human neuropeptide Y (NPY-Y1) (Homo sapiens, UniProt P25929); assay: Radioligand binding, human neuropeptide Y NPY-Y1 membranes, FlashPlate, [125I]-PYY; conditions: compound at 10 μM, [125I]-PYY
T9 construct: purchased Perkin Elmer Biosignal
T9 sequence (P25929 1-384): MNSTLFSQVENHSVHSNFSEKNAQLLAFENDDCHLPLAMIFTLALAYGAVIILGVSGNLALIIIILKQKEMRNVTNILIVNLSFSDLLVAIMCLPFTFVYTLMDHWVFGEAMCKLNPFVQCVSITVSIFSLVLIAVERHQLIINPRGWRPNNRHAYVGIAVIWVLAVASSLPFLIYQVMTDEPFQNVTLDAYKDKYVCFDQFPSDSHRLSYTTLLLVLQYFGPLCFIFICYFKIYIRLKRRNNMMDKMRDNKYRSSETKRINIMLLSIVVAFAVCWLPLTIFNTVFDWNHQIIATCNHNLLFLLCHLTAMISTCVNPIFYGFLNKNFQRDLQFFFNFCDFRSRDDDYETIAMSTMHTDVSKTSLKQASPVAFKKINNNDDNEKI
Method in brief: as §1

Human opioid (ORL1) = molecular target: T10, Human opioid (ORL1) (Homo sapiens, UniProt P41146); assay: Radioligand binding, human opioid ORL1 membranes, FlashPlate, [125I]-Nociceptin; conditions: compound at 10 μM, [125I]-Nociceptin
T10 construct: purchased Perkin Elmer Biosignal
Method in brief: as §1

Mouse urotensin (mUR2) = molecular target: T11, Mouse urotensin (mUR2) (Mus musculus, UniProt Q8VIH9); assay: Radioligand binding, mouse urotensin mUR2 membranes, FlashPlate, [125I]-Urotensin II; conditions: compound at 10 μM, [125I]-Urotensin II
T11 construct: purchased Perkin Elmer Biosignal
T11 sequence (Q8VIH9 1-385): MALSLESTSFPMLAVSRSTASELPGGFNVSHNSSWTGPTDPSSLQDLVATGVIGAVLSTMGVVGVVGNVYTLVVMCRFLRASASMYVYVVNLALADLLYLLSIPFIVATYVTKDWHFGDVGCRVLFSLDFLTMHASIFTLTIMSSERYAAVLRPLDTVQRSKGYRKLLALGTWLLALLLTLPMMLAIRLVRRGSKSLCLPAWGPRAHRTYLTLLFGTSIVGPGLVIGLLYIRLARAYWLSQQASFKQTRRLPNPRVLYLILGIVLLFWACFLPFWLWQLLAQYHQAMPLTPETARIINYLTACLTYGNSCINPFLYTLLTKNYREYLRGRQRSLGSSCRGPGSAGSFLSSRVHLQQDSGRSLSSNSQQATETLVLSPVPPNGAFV
Method in brief: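 Cloned mouse urotensin (mUR2) receptor membranes from Perkin Elmer Biosignal were immobilized in FlashPlate microplates using a proprietary coating. Each well got 19.5 μl buffer, then 0.5 μl of DMSO, reference ligand, or compound. Adding 5 μl of [125I]-Urotensin II, diluted to 5× final concentration in binding buffer, started binding. Plates were sealed with TopSeal-A and incubated 1 hour at room temperature in the dark. Wells were counted for 30 seconds each on a TopCount after a 60-second delay, and percentage inhibition was calculated.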

T10 sequence (P41146 whole entry): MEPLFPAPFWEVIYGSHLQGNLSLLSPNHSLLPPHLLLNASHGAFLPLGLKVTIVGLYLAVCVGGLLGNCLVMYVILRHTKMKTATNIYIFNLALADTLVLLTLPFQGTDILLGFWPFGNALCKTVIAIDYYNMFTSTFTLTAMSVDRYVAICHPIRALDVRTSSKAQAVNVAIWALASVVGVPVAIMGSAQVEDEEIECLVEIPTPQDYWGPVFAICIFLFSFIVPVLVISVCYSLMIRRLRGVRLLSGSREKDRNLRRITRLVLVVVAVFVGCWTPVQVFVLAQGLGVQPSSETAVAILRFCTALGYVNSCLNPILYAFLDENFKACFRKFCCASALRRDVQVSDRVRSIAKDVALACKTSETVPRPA
T5 sequence (P33032 whole entry): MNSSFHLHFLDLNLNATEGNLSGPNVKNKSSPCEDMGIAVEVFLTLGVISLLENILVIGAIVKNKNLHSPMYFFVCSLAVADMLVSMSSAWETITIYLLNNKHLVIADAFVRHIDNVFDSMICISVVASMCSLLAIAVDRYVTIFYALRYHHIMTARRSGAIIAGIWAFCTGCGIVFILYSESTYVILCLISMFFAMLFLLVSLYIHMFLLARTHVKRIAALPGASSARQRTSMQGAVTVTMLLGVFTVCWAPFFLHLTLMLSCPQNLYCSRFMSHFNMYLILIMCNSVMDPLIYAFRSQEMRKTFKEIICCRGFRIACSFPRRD
T3 sequence (P41968 whole entry): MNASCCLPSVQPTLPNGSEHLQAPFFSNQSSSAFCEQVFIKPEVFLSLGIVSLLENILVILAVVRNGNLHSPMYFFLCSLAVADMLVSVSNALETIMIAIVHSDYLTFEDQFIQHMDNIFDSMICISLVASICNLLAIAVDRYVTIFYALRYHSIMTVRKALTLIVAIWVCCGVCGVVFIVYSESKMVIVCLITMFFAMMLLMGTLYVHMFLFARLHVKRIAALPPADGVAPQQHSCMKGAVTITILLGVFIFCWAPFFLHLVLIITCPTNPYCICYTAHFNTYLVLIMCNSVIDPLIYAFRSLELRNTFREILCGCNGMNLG
T1 sequence (P41143 whole entry): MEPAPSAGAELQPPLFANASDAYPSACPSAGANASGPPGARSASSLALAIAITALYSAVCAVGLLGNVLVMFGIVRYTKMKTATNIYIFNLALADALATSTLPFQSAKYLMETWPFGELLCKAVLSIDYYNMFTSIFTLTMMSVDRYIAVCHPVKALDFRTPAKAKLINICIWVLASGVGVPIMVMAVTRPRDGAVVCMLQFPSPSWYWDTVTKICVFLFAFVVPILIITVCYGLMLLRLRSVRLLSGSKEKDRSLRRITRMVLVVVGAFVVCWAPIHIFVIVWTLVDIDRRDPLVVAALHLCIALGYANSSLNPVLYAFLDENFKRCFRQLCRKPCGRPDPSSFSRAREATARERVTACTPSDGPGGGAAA
T6 sequence (Q99705 whole entry): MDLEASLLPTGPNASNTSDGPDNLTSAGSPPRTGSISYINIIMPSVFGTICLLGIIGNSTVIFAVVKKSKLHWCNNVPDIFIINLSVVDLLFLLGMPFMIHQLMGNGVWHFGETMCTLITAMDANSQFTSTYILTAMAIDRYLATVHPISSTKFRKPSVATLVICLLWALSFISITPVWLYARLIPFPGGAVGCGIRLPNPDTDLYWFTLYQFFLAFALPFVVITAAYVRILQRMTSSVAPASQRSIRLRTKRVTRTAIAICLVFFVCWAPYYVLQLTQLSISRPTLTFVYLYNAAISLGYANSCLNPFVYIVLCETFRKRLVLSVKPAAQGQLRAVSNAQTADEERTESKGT
T7 sequence (P35372 whole entry): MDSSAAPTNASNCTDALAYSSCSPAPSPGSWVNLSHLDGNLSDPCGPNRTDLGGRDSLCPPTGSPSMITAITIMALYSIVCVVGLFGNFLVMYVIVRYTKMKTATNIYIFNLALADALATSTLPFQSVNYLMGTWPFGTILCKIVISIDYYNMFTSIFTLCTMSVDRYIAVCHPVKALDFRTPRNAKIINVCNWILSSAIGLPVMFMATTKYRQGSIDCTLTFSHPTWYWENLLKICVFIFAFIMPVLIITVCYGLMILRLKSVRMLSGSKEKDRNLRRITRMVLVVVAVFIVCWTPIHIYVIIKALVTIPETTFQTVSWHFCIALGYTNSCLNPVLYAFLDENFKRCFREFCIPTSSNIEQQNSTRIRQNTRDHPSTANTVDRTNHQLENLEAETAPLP
T4 sequence (P32245 whole entry): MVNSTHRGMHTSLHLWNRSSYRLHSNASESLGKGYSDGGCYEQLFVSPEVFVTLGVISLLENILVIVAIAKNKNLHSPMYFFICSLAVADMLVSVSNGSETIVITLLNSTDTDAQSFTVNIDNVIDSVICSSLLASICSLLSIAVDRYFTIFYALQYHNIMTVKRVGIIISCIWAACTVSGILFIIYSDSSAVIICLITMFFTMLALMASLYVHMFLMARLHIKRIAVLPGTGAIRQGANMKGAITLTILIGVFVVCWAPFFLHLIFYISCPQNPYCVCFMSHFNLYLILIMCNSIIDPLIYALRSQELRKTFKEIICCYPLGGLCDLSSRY
T2 sequence (P41145 whole entry): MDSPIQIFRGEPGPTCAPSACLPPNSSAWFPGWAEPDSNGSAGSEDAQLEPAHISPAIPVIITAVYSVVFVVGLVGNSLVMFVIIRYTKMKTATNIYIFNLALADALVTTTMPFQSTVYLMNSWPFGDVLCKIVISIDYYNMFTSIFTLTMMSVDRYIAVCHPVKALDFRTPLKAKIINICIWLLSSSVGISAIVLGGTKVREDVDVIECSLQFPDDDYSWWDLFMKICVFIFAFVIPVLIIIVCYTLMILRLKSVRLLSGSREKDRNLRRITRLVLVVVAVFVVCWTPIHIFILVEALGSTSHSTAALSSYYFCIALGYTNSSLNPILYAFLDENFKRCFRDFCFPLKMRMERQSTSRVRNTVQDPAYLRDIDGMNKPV
T8 sequence (P25103 whole entry): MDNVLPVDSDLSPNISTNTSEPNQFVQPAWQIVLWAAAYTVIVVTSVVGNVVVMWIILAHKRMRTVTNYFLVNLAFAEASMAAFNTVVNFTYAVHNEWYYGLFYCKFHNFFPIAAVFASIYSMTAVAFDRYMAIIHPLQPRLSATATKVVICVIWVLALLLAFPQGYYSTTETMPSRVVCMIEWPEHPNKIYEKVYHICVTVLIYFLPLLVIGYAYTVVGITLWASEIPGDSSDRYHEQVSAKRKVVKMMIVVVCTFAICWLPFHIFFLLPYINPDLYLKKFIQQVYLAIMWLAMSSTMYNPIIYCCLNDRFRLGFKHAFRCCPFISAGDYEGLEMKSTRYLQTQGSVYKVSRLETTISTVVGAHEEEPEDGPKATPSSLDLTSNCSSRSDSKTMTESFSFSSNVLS

SMILES: CO[C@H]1[C@H](O)[C@@H](COCc2ccc(Cl)cc2)OC(OCc2ccccc2)[C@@H]1NC(=O)CCCN (stereo partly shown) [compound 92]
- A1 radioligand binding, percentage inhibition (Human δ-opioid (DOP)): − (“−” indicates less than 50% inhibition at 10 μM)
- A2 radioligand binding, percentage inhibition (Human κ-Opioid (KOP)): − (“−” indicates less than 50% inhibition at 10 μM)
- A3 radioligand binding, percentage inhibition (Human Melanocortin (MC3)): − (“−” indicates less than 50% inhibition at 10 μM)
- A4 radioligand binding, percentage inhibition (Human Melanocortin (MC4)): − (“−” indicates less than 50% inhibition at 10 μM)
- A5 radioligand binding, percentage inhibition (Human melanocortin (MC5)): − (“−” indicates less than 50% inhibition at 10 μM)
- A6 radioligand binding, percentage inhibition ([1]; [125I]-S36057): − (“−” indicates less than 50% inhibition at 10 μM)
- A7 radioligand binding, percentage inhibition (Human μ-opioid (MOP)): − (“−” indicates less than 50% inhibition at 10 μM)
- A8 radioligand binding, percentage inhibition (Human neurokinin (NK1)): + (“+” indicates greater than 50% inhibition at 10 μM)
- A9 radioligand binding, percentage inhibition [2]: − (“−” indicates less than 50% inhibition at 10 μM)
- A10 radioligand binding, percentage inhibition (Human opioid (ORL1)): − (“−” indicates less than 50% inhibition at 10 μM)
- A11 radioligand binding, percentage inhibition (Mouse urotensin (mUR2)): − (“−” indicates less than 50% inhibition at 10 μM)

SMILES: CO[C@H]1[C@H](O)[C@@H](COCc2ccc3ccccc3c2)OC(OCCc2ccccc2)[C@@H]1NC(=O)CCCNC(=N)N (stereo partly shown) [compound 116]
- A1 radioligand binding, percentage inhibition (Human δ-opioid (DOP)): − (“−” indicates less than 50% inhibition at 10 μM)
- A2 radioligand binding, percentage inhibition (Human κ-Opioid (KOP)): − (“−” indicates less than 50% inhibition at 10 μM)
- A3 radioligand binding, percentage inhibition (Human Melanocortin (MC3)): − (“−” indicates less than 50% inhibition at 10 μM)
- A4 radioligand binding, percentage inhibition (Human Melanocortin (MC4)): − (“−” indicates less than 50% inhibition at 10 μM)
- A5 radioligand binding, percentage inhibition (Human melanocortin (MC5)): + (“+” indicates greater than 50% inhibition at 10 μM)
- A6 radioligand binding, percentage inhibition ([1]; [125I]-S36057): − (“−” indicates less than 50% inhibition at 10 μM)
- A7 radioligand binding, percentage inhibition (Human μ-opioid (MOP)): − (“−” indicates less than 50% inhibition at 10 μM)
- A8 radioligand binding, percentage inhibition (Human neurokinin (NK1)): + (“+” indicates greater than 50% inhibition at 10 μM)
- A9 radioligand binding, percentage inhibition [2]: − (“−” indicates less than 50% inhibition at 10 μM)
- A10 radioligand binding, percentage inhibition (Human opioid (ORL1)): − (“−” indicates less than 50% inhibition at 10 μM)
- A11 radioligand binding, percentage inhibition (Mouse urotensin (mUR2)): − (“−” indicates less than 50% inhibition at 10 μM)

SMILES: N=C(N)NCC(=O)NC1C(OCc2ccc(-c3ccccc3)cc2)OC(COCc2ccccc2)C(O)C1OCc1ccc(Cl)cc1 (stereo not shown) [compound 400]
- A1: inhibition of radioligand binding (Human δ-opioid (DOP); human DOP membranes): − (“−” indicates less than 50% inhibition at 10 μM)
- A2: inhibition of radioligand binding (Human κ-Opioid (KOP); human KOP membranes): − (“−” indicates less than 50% inhibition at 10 μM)
- A3: inhibition of radioligand binding (Human Melanocortin (MC3); human MC3 membranes): + (“+” indicates greater than 50% inhibition at 10 μM)
- A4: inhibition of radioligand binding (Human Melanocortin (MC4); human MC4 membranes): + (“+” indicates greater than 50% inhibition at 10 μM)
- A5: inhibition of radioligand binding (Human melanocortin (MC5); human MC5 membranes): + (“+” indicates greater than 50% inhibition at 10 μM)
- A6: inhibition of radioligand binding ([1]; [125I]-S36057, human MCH1 membranes): + (“+” indicates greater than 50% inhibition at 10 μM)
- A7: inhibition of radioligand binding (Human μ-opioid (MOP); human MOP membranes): − (“−” indicates less than 50% inhibition at 10 μM)
- A8: inhibition of radioligand binding (Human neurokinin (NK1); human NK1 membranes): + (“+” indicates greater than 50% inhibition at 10 μM)
- A9: inhibition of radioligand binding ([2]; human NPY-Y1 membranes): − (“−” indicates less than 50% inhibition at 10 μM)
- A10: inhibition of radioligand binding (Human opioid (ORL1); human ORL1 membranes): + (“+” indicates greater than 50% inhibition at 10 μM)
- A11: inhibition of radioligand binding (Mouse urotensin (mUR2); mouse mUR2 membranes): − (“−” indicates less than 50% inhibition at 10 μM)

SMILES: CO[C@H]1[C@H](O)[C@@H](COCc2ccc(-c3ccccc3)cc2)OC(OCCc2ccccc2)[C@@H]1NC(=O)CCNC(=N)N (stereo partly shown) [compound 110]
- A1 radioligand binding, percentage inhibition (Human δ-opioid (DOP)): − (“−” indicates less than 50% inhibition at 10 μM)
- A2 radioligand binding, percentage inhibition (Human κ-Opioid (KOP)): − (“−” indicates less than 50% inhibition at 10 μM)
- A3 radioligand binding, percentage inhibition (Human Melanocortin (MC3)): − (“−” indicates less than 50% inhibition at 10 μM)
- A4 radioligand binding, percentage inhibition (Human Melanocortin (MC4)): + (“+” indicates greater than 50% inhibition at 10 μM)
- A5 radioligand binding, percentage inhibition (Human melanocortin (MC5)): + (“+” indicates greater than 50% inhibition at 10 μM)
- A6 radioligand binding, percentage inhibition ([1]; [125I]-S36057): − (“−” indicates less than 50% inhibition at 10 μM)
- A7 radioligand binding, percentage inhibition (Human μ-opioid (MOP)): − (“−” indicates less than 50% inhibition at 10 μM)
- A8 radioligand binding, percentage inhibition (Human neurokinin (NK1)): − (“−” indicates less than 50% inhibition at 10 μM)
- A9 radioligand binding, percentage inhibition [2]: − (“−” indicates less than 50% inhibition at 10 μM)
- A10 radioligand binding, percentage inhibition (Human opioid (ORL1)): − (“−” indicates less than 50% inhibition at 10 μM)
- A11 radioligand binding, percentage inhibition (Mouse urotensin (mUR2)): − (“−” indicates less than 50% inhibition at 10 μM)

SMILES: CSC1OC(COCc2ccccc2)C(O)C(OCc2cccc(N)c2)C1NC(=O)C=Cc1ccccc1 (stereo not shown) [compound 324]
- A1: inhibition of radioligand binding, human δ-opioid (DOP) (Human δ-opioid (DOP)): − (“−” indicates less than 50% inhibition at 10 μM)
- A2: inhibition of radioligand binding, human κ-opioid (KOP) (Human κ-Opioid (KOP)): − (“−” indicates less than 50% inhibition at 10 μM)
- A3: inhibition of radioligand binding, human melanocortin (MC3) (Human Melanocortin (MC3)): − (“−” indicates less than 50% inhibition at 10 μM)
- A4: inhibition of radioligand binding, human melanocortin (MC4) (Human Melanocortin (MC4)): − (“−” indicates less than 50% inhibition at 10 μM)
- A5: inhibition of radioligand binding, human melanocortin (MC5) (Human melanocortin (MC5)): − (“−” indicates less than 50% inhibition at 10 μM)
- A6: inhibition of radioligand binding, human melanin-concentrating hormone (MCH1) ([1]; [125I]-S36057): − (“−” indicates less than 50% inhibition at 10 μM)
- A7: inhibition of radioligand binding, human μ-opioid (MOP) (Human μ-opioid (MOP)): − (“−” indicates less than 50% inhibition at 10 μM)
- A8: inhibition of radioligand binding, human neurokinin (NK1) (Human neurokinin (NK1)): + (“+” indicates greater than 50% inhibition at 10 μM)
- A9: inhibition of radioligand binding, human neuropeptide Y (NPY-Y1) [2]: − (“−” indicates less than 50% inhibition at 10 μM)
- A10: inhibition of radioligand binding, human opioid (ORL1) (Human opioid (ORL1)): − (“−” indicates less than 50% inhibition at 10 μM)
- A11: inhibition of radioligand binding, mouse urotensin (mUR2) (Mouse urotensin (mUR2)): − (“−” indicates less than 50% inhibition at 10 μM)
